# Results reported in patent US20260272964A1, “PENTAGALLOYL GLUCOSE DERIVED FROM SCHINUS PLANTS AND METHODS OF USE” (Emory University, priority 2020, published 2026).
# Several values for one entry are separate records, joined by “and”; a condition that tells them apart may be missing. Identical values can stand only once. Like-named read-outs stand apart in the source and are kept apart here.
# Assays:
# Candida species = assay: Growth inhibition of a panel of Candida strains; type: cell-based
# Procedure: (§1) The activity of PGG was tested for growth inhibition against two susceptible strains and 6 drug resistant strains from three Candida species (Table 2). […] The activity of PGG followed a dose-response curve against tested strains. Typically the strains tested had MICs less than 2 μg/mL. Candida glabrata (AR Bank #0335) yielded the highest MIC at 8 μg/mL.
# Acinetobacter baumannii = assay: Growth inhibition of Acinetobacter baumannii (CRAB and susceptible strains); type: cell-based; conditions: for IC50 / MIC: Acinetobacter baumannii
# Procedure: A natural products library was screened for growth inhibition of CRAB. Lead extracts were then tested in serial dilution and nine extracts from seven species were chosen for further study based on activity. Extract 429, made from the leaves of Schinus terebinthifolia, underwent bioassay-guided fractionation for growth inhibition (FIG. 1).
# A library of botanical extracts generated from plants was screened for growth inhibition of CRAB. […] Bioassay-guided fractionation lead to the isolation of pentagalloyl glucose (PGG), a bioactive gallotannin. […] Topical applications of PGG, such as wound rinses and dressings, are contemplated. […]
# Candida auris = assay: Growth inhibition of Candida species; type: cell-based; conditions: Candidozyma auris
# Procedure: as §1
# Candida albicans = assay: Growth inhibition of Candida species; type: cell-based
# Procedure: as §1
# Candida glabrata = assay: Growth inhibition of Candida species; type: cell-based
# Procedure: as §1
# Candida tropicalis = assay: Growth inhibition of Candida species; type: cell-based; conditions: Table 2, strain AR Bank #0345
# Procedure: as §1
# Candida parapsilosis = assay: Growth inhibition of Candida species; type: cell-based; conditions: Lodderomyces parapsilosis
# Procedure: as §1
# [1] = in vivo; cited from earlier work
# A. baumannii = assay: Growth inhibition assays with media supplementation; type: cell-based, Acinetobacter baumannii
# Procedure: PGG antibacterial activity may be attributed to its chelation of iron. One can use a colorimetric assay to quantify binding of free iron by PGG. One can perform bioassays with iron supplementation and 2,2′-dipyridyl, a known iron chelator, as a control. To elucidate potential mechanisms of action of PGG, A. baumannii growth inhibition and time-kill assays were carried out with various supplements in combination with PGG: 0.02% oleic acid, 0.02% polysorbate 80, 1 mM iron (II) sulfate, and 1 mM iron (III) sulfate. […] Furthermore, PGG combined with oleic acid, polysorbate 80, and iron (II) sulfate treatments had roughly tenfold, 100-fold, and 1,000-fold higher CFU/mL measurements, respectively, than PGG alone at the 24 h timepoint.
smiles,measurement,setting,value
"O=C(OC[C@H]1O[C@@H](OC(=O)c2cc(O)c(O)c(O)c2)[C@H](OC(=O)c2cc(O)c(O)c(O)c2)[C@@H](OC(=O)c2cc(O)c(O)c(O)c2)[C@@H]1OC(=O)c1cc(O)c(O)c(O)c1)c1cc(O)c(O)c(O)c1 [PGG, [(2R,3R,4S,5R,6S)-3,4,5,6-tetrakis[(3,4,5-trihydroxybenzoyl)oxy]oxan-2-yl]methyl 3,4,5-trihydroxybenzoate]",MIC,"Candida species; Candida strains tested, read-out: MICs typical of the strains tested",< 2 µg/mL
same,IC50,"Candida species; two susceptible and 6 drug resistant strains from three Candida species, read-out: IC50 values, range over strains",0.25 µg/mL to 2 µg/mL and 260 nM to 2.1 µM
same,growth inhibition compared to PGG isolated from S. terebinthifolia,Acinetobacter baumannii; A. baumannii,identical growth inhibition
same,inhibition at which dose-response curves level off,"Acinetobacter baumannii; A. baumannii, high concentrations",85-95%
same,IC50,"Acinetobacter baumannii; A. baumannii strains tested in this study, read-out: median IC50 for growth inhibition",8 µg/mL
same,MIC,"Acinetobacter baumannii; A. baumannii, strain not given, read-out: MIC",64 µg/mL
same,IC50,"Acinetobacter baumannii; ATCC17978, strain ATCC17978, read-out: PGG IC50",8 µg/mL
same,MIC,"Acinetobacter baumannii; ATCC17978, strain ATCC17978, read-out: PGG MIC",> 256 µg/mL
same,MIC,"Acinetobacter baumannii; fourteen strains, read-out: MICs of fourteen of the A. baumannii strains tested",> 256 µg/mL
same,IC50,"Acinetobacter baumannii; read-out: IC50s, range over strains, one susceptible and 23 drug resistant strains (19 CRAB)",8 µg/mL to 64 µg/mL and 8.5 µM to 68 µM
same,IC50,"Acinetobacter baumannii; strain AB5075, read-out: PGG IC50",16 µg/mL
same,MIC,"Acinetobacter baumannii; strain AB5075, read-out: PGG MIC",256 µg/mL
same,IC50,"Acinetobacter baumannii; strain AR Bank #0033, read-out: PGG IC50",8 µg/mL
same,MIC,"Acinetobacter baumannii; strain AR Bank #0033, read-out: PGG MIC",> 256 µg/mL
same,IC50,"Acinetobacter baumannii; strain AR Bank #0035, read-out: PGG IC50",8 µg/mL
same,MIC,"Acinetobacter baumannii; strain AR Bank #0035, read-out: PGG MIC",256 µg/mL
same,IC50,"Acinetobacter baumannii; strain AR Bank #0036, read-out: PGG IC50",16 µg/mL
same,MIC,"Acinetobacter baumannii; strain AR Bank #0036, read-out: PGG MIC",> 256 µg/mL
same,IC50,"Acinetobacter baumannii; strain AR Bank #0037, read-out: PGG IC50",8 µg/mL
same,MIC,"Acinetobacter baumannii; strain AR Bank #0037, read-out: PGG MIC",> 256 µg/mL
same,IC50,"Acinetobacter baumannii; strain AR Bank #0045, read-out: PGG IC50",8 µg/mL
same,MIC,"Acinetobacter baumannii; strain AR Bank #0045, read-out: PGG MIC",128 µg/mL
same,IC50,"Acinetobacter baumannii; strain AR Bank #0070, read-out: PGG IC50",16 µg/mL
same,MIC,"Acinetobacter baumannii; strain AR Bank #0070, read-out: PGG MIC",> 256 µg/mL
same,IC50,"Acinetobacter baumannii; strain AR Bank #0102, read-out: PGG IC50",8 µg/mL
same,MIC,"Acinetobacter baumannii; strain AR Bank #0102, read-out: PGG MIC",> 256 µg/mL
same,IC50,"Acinetobacter baumannii; strain AR Bank #0273, read-out: PGG IC50",8 µg/mL
same,MIC,"Acinetobacter baumannii; strain AR Bank #0273, read-out: PGG MIC",128 µg/mL
same,IC50,"Acinetobacter baumannii; strain AR Bank #0274, read-out: PGG IC50",64 µg/mL
same,MIC,"Acinetobacter baumannii; strain AR Bank #0274, read-out: PGG MIC",> 256 µg/mL
same,IC50,"Acinetobacter baumannii; strain AR Bank #0275, read-out: PGG IC50",8 µg/mL
same,MIC,"Acinetobacter baumannii; strain AR Bank #0275, read-out: PGG MIC",> 256 µg/mL
same,IC50,"Acinetobacter baumannii; strain AR Bank #0277, read-out: PGG IC50",8 µg/mL
same,MIC,"Acinetobacter baumannii; strain AR Bank #0277, read-out: PGG MIC",> 256 µg/mL
same,IC50,"Acinetobacter baumannii; strain AR Bank #0278, read-out: PGG IC50",8 µg/mL
same,MIC,"Acinetobacter baumannii; strain AR Bank #0278, read-out: PGG MIC",> 256 µg/mL
same,IC50,"Acinetobacter baumannii; strain AR Bank #0281, read-out: PGG IC50",8 µg/mL
same,MIC,"Acinetobacter baumannii; strain AR Bank #0281, read-out: PGG MIC",128 µg/mL
same,IC50,"Acinetobacter baumannii; strain AR Bank #0282, read-out: PGG IC50",16 µg/mL
same,MIC,"Acinetobacter baumannii; strain AR Bank #0282, read-out: PGG MIC",> 256 µg/mL
same,IC50,"Acinetobacter baumannii; strain AR Bank #0283, read-out: PGG IC50",8 µg/mL
same,MIC,"Acinetobacter baumannii; strain AR Bank #0283, read-out: PGG MIC",> 256 µg/mL
same,IC50,"Acinetobacter baumannii; strain AR Bank #0284, read-out: PGG IC50",8 µg/mL
same,MIC,"Acinetobacter baumannii; strain AR Bank #0284, read-out: PGG MIC",64 µg/mL
same,IC50,"Acinetobacter baumannii; strain AR Bank #0295, read-out: PGG IC50",8 µg/mL
same,MIC,"Acinetobacter baumannii; strain AR Bank #0295, read-out: PGG MIC",> 256 µg/mL
same,IC50,"Acinetobacter baumannii; strain AR Bank #0299, read-out: PGG IC50",8 µg/mL
same,MIC,"Acinetobacter baumannii; strain AR Bank #0299, read-out: PGG MIC",128 µg/mL
same,IC50,"Acinetobacter baumannii; strain AR Bank #0300, read-out: PGG IC50",8 µg/mL
same,MIC,"Acinetobacter baumannii; strain AR Bank #0300, read-out: PGG MIC",256 µg/mL
same,IC50,"Acinetobacter baumannii; strain NR-9667, read-out: PGG IC50",16 µg/mL
same,MIC,"Acinetobacter baumannii; strain NR-9667, read-out: PGG MIC",256 µg/mL
same,IC50,"Acinetobacter baumannii; strain Naval-81, read-out: PGG IC50",16 µg/mL
same,MIC,"Acinetobacter baumannii; strain Naval-81, read-out: PGG MIC",> 256 µg/mL
same,IC50,"Acinetobacter baumannii; strain OIFC143, read-out: PGG IC50",8 µg/mL
same,MIC,"Acinetobacter baumannii; strain OIFC143, read-out: PGG MIC",128 µg/mL
same,activity in bioassay-guided fractionation for growth inhibition,"Acinetobacter baumannii; CRAB, fractions of extract 429",most active constituent
same,PGG MIC,Acinetobacter baumannii; strain ATCC17978,>256 µg/mL
same,MIC,"Candida auris; Table 2, strain AR Bank #0390",0.25 µg/mL
same,IC50,"Candida auris; Table 2, strain AR Bank #0381",0.25 µg/mL
same,MIC,"Candida auris; Table 2, strain AR Bank #0381",0.5 µg/mL
same,IC50,"Candida albicans; Candida albicans, Table 2, strain ARMH12 (Flc^R)",0.5 µg/mL
same,MIC,"Candida albicans; Candida albicans, Table 2, strain ARMH12 (Flc^R), read-out: MIC",1 µg/mL
same,IC50,"Candida albicans; Candida albicans, Table 2, strain ATCC10231",0.25 µg/mL
same,MIC,"Candida albicans; Candida albicans, Table 2, strain ATCC10231, read-out: MIC",0.5 µg/mL
same,IC50,"Candida albicans; Candida albicans, Table 3, strain ATCC90028",1 µg/mL
same,MIC,"Candida albicans; Candida albicans, Table 3, strain ATCC90028, read-out: MIC",2 µg/mL
same,MIC,"Candida albicans; Table 3, strain MH12",1.0 µg/mL
same,IC50,"Candida glabrata; Nakaseomyces glabratus, Table 2, strain AR Bank #0325",0.5 µg/mL
same,MIC,"Candida glabrata; Nakaseomyces glabratus, Table 2, strain AR Bank #0325, read-out: MIC",1 µg/mL
same,IC50,"Candida glabrata; Nakaseomyces glabratus, Table 3, strain AR Bank #0325",0.5 µg/mL
same,MIC,"Candida glabrata; Nakaseomyces glabratus, Table 3, strain AR Bank #0325, read-out: MIC",1 µg/mL
same,IC50,"Candida glabrata; Nakaseomyces glabratus, Table 3, strain AR Bank #0326",0.25 µg/mL
same,MIC,"Candida glabrata; Nakaseomyces glabratus, Table 3, strain AR Bank #0326, read-out: MIC",0.5 µg/mL
same,IC50,"Candida glabrata; Nakaseomyces glabratus, Table 3, strain AR Bank #0335",2 µg/mL
same,MIC,"Candida glabrata; Nakaseomyces glabratus, Table 3, strain AR Bank #0335, read-out: MIC",8 µg/mL
same,MIC,"Candida glabrata; Table 3, strain AR Bank #0335",8.0 µg/mL
same,IC50,Candida tropicalis,0.25 µg/mL
same,MIC,Candida tropicalis,1 µg/mL
same,IC50,"Candida parapsilosis; Table 2, strain AR Bank #0337",0.5 µg/mL
same,MIC,"Candida parapsilosis; Table 2, strain AR Bank #0337",1 µg/mL
same,IC50,"Candida parapsilosis; Table 3, strain AR Bank #0337",1 µg/mL
same,MIC,"Candida parapsilosis; Table 3, strain AR Bank #0337",1 µg/mL
same,IC50,"Candida parapsilosis; Table 3, strain AR Bank #0338",0.5 µg/mL
same,MIC,"Candida parapsilosis; Table 3, strain AR Bank #0338",1 µg/mL
same,IC50,"Candida parapsilosis; Table 3, strain AR Bank #0339",1 µg/mL
same,MIC,"Candida parapsilosis; Table 3, strain AR Bank #0339",2 µg/mL
same,oral bioavailability,[1],low oral bioavailability
same,change of growth inhibition on supplementation,A. baumannii; PGG 256-2 μg/mL with 1 mM iron (II) sulfate,attenuated growth inhibition
same,change of growth inhibition on supplementation,A. baumannii; PGG 256-2 μg/mL with 1 mM iron (III) sulfate,attenuated growth inhibition
same,change of growth inhibition on supplementation,A. baumannii; PGG 256-2 μg/mL with 0.02% oleic acid,no change in activity
same,change of growth inhibition on supplementation,A. baumannii; PGG 256-2 μg/mL with 0.02% polysorbate 80,attenuated growth inhibition
